# Assay results as given in ChEMBL document CHEMBL3880421, “Indazole compounds and pharmaceutical compositions for inhibiting protein kinases, and methods for their use” (2003).
# How the values were obtained:
# [1] = biological target: Cyclin-dependent kinase 1 (Homo sapiens) (UniProt P06493); test: Inhibition of CDK1 (unknown origin) at 1 uM
# [2] = tested on: Rattus norvegicus; test: Antivascular activity in rat model of retinopathy assessed as vessel regression in retina at 5 mg/ml, administered intravitreally measured after 6 days by ADPase-staining based histochemical analysis; format: functional
# [3] = AUClast in B6 mouse at 50 mg/kg, po by UV-HPLC analysis; format: ADME, organism-based; set-up: dose 50 mg/kg, route oral, time 0 - last; details: in vivo
# [4] = biological target: T1, Serine/threonine-protein kinase Chk1 (Homo sapiens) (UniProt O14757); test: Inhibition of full length human C-terminal 6His-tagged CHK1 expressed in baculovirus/insect expression system assessed as reduction in NADH oxidation at 20 uM using Syntide2 as substrate by pyruvate kinase/lactate dehydrogenase coupled assay
# T1 sequence (whole entry): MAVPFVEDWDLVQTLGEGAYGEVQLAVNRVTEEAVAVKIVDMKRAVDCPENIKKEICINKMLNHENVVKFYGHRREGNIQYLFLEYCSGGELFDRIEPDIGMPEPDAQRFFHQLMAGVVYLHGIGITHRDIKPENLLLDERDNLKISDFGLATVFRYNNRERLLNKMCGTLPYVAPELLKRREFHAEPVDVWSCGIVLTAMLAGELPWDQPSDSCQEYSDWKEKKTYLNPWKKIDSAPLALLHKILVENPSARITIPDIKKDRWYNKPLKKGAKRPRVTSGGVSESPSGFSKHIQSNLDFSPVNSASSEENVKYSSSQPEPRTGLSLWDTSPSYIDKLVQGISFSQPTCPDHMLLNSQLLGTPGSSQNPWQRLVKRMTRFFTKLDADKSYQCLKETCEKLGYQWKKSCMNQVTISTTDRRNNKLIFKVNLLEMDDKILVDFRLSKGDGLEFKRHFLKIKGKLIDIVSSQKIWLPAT
# [5] = tested on: Vascular endothelial growth factor receptor 2 (Homo sapiens), P35968 [E990V]; details: at 50 nM
# [6] = AUClast in B6 mouse at 25 mg/kg, po by UV-HPLC analysis; format: ADME, organism-based; set-up: dose 25 mg/kg, time 0 - last, route oral; details: in vivo
# [7] = Cmin in B6 mouse at 200 mg/kg, po measured after 7 hrs by UV-HPLC analysis; format: ADME, organism-based; details: in vivo, read-out: Cmin
# [8] = Cmin in B6 mouse at 8 mg/kg, po measured after 7 hrs by UV-HPLC analysis; format: ADME, organism-based; details: in vivo, read-out: Cmin
# [9] = (§1) Cmax in B6 mouse at 25 mg/kg, po by UV-HPLC analysis; format: ADME, organism-based; set-up: dose 25 mg/kg, route oral; details: B6, mouse, in vivo
# [10] = Cmin in B6 mouse at 40 mg/kg, po measured after 7 hrs by UV-HPLC analysis; format: ADME, organism-based; details: in vivo, read-out: Cmin
# [11] = Terminal half life in B6 mouse at 25 mg/kg, po by UV-HPLC analysis; format: ADME, organism-based; details: in vivo; for half-life: B6, mouse, read-out: beta t1/2 (converted)
# [12] = Metabolic stability in human liver microsomes assessed as compound remaining at 5 uM measured after 2 hrs in presence of NADPH-regenerating system by LC-UV/MS analysis; format: ADME; details: read-out: Stability
# [13] = Terminal half life in B6 mouse at 50 mg/kg, po by UV-HPLC analysis; format: ADME, organism-based; details: B6, mouse, in vivo, read-out: beta t1/2 (converted)
# [14] = Terminal half life in B6 mouse at 25 mg/kg, ip by UV-HPLC analysis; format: ADME, organism-based; details: in vivo, read-out: beta t1/2 (converted)
# [15] = tested on: Focal adhesion kinase 1 (Homo sapiens), Q05397 [P410T]; test: Inhibition of human FAK P410T mutant expressed in baculovirus expression system at 10 uM using poly Glu-Tyr (4:1) as substrate by fluorescence polarization method
# [16] = tested on: Rattus norvegicus; test: Antivascular activity in rat model of retinopathy assessed as vessel regression in retina at 5 mg/ml, administered intravitreally on postnatal day 8 measured after 6 days by ADPase-staining based histochemical analysis; format: functional
# [17] = Terminal half life in B6 mouse at 10 mg/kg, po by UV-HPLC analysis; format: ADME, organism-based; details: in vivo, read-out: beta t1/2 (converted)
# [18] = tested on: Mus musculus; test: as §1; format: ADME, organism-based; set-up: dose 25 mg/kg, route oral; details: mouse, in vivo, BLD = below limit of detection
# [19] = Cmax in B6 mouse at 50 mg/kg, po by UV-HPLC analysis; format: ADME, organism-based; set-up: dose 50 mg/kg, route oral; details: in vivo
# [20] = Cmax in B6 mouse at 10 mg/kg, po by UV-HPLC analysis; format: ADME, organism-based; set-up: dose 10 mg/kg, route oral; details: in vivo
# [21] = Terminal half life in B6 mouse at 8 mg/kg, po by UV-HPLC analysis; format: ADME, organism-based; details: in vivo, read-out: beta t1/2 (converted)
# [22] = AUClast in B6 mouse at 10 mg/kg, po by UV-HPLC analysis; format: ADME, organism-based; set-up: dose 10 mg/kg, route oral, time 0 - last; details: in vivo
# [23] = Terminal half life in B6 mouse at 40 mg/kg, po by UV-HPLC analysis; format: ADME, organism-based; details: in vivo, read-out: beta t1/2 (converted)
# [24] = Terminal half life in B6 mouse at 200 mg/kg, po by UV-HPLC analysis; format: ADME, organism-based; details: in vivo, read-out: beta t1/2 (converted)
# [25] = AUClast in B6 mouse at 200 mg/kg, po by UV-HPLC analysis; format: ADME, organism-based; set-up: dose 200 mg/kg, time 0 - last, route oral; details: in vivo
# [26] = Terminal half life in B6 mouse at 25 mg/kg, po administered in 0.5% CMC by UV-HPLC analysis; format: ADME, organism-based; details: in vivo, read-out: beta t1/2 (converted)
# [27] = biological target: T1, Serine/threonine-protein kinase Chk1 (Homo sapiens); test: Inhibition of full length human C-terminal 6His-tagged CHK1 expressed in baculovirus/insect expression system assessed as reduction in NADH oxidation at 50 uM using Syntide2 as substrate by pyruvate kinase/lactate dehydrogenase coupled assay
# Vascular endothelial growth factor receptor 2 (Homo sapiens), P35968 [E990V], sequence (P35968 whole entry E990V): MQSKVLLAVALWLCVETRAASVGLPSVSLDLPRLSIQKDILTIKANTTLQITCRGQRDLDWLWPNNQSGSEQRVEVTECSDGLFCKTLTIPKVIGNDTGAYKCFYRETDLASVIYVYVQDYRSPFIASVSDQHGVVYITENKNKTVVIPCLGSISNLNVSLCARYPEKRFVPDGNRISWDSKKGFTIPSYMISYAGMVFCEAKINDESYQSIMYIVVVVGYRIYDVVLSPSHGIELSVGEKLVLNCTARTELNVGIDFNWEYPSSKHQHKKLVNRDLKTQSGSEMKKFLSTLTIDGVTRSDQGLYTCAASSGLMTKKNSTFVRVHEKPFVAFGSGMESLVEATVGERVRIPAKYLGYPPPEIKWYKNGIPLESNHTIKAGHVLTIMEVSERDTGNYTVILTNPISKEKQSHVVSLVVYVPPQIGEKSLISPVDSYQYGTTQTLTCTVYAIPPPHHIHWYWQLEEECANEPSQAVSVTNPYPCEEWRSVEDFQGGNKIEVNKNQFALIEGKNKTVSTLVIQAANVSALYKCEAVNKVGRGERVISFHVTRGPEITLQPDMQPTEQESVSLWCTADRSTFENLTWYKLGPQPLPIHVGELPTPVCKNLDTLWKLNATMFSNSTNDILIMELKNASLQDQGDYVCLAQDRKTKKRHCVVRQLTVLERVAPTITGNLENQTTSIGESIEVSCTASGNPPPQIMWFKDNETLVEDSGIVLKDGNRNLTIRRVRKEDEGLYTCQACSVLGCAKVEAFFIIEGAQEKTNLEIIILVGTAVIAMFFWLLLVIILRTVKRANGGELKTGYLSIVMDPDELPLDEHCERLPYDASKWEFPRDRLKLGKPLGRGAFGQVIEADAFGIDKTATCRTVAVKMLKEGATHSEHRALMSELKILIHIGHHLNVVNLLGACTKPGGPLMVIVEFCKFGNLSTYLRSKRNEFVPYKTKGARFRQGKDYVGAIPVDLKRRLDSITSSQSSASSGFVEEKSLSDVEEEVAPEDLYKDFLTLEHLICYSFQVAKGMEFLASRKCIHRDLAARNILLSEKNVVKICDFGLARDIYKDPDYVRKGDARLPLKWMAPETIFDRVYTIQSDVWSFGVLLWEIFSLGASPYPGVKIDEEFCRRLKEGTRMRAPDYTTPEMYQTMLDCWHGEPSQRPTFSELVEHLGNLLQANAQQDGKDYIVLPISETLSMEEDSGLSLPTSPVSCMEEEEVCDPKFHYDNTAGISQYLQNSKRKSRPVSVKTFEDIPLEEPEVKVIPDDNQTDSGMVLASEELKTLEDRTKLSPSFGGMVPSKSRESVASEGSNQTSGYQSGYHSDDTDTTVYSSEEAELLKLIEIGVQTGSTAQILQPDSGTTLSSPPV
# Focal adhesion kinase 1 (Homo sapiens), Q05397 [P410T], sequence (Q05397 whole entry P410T): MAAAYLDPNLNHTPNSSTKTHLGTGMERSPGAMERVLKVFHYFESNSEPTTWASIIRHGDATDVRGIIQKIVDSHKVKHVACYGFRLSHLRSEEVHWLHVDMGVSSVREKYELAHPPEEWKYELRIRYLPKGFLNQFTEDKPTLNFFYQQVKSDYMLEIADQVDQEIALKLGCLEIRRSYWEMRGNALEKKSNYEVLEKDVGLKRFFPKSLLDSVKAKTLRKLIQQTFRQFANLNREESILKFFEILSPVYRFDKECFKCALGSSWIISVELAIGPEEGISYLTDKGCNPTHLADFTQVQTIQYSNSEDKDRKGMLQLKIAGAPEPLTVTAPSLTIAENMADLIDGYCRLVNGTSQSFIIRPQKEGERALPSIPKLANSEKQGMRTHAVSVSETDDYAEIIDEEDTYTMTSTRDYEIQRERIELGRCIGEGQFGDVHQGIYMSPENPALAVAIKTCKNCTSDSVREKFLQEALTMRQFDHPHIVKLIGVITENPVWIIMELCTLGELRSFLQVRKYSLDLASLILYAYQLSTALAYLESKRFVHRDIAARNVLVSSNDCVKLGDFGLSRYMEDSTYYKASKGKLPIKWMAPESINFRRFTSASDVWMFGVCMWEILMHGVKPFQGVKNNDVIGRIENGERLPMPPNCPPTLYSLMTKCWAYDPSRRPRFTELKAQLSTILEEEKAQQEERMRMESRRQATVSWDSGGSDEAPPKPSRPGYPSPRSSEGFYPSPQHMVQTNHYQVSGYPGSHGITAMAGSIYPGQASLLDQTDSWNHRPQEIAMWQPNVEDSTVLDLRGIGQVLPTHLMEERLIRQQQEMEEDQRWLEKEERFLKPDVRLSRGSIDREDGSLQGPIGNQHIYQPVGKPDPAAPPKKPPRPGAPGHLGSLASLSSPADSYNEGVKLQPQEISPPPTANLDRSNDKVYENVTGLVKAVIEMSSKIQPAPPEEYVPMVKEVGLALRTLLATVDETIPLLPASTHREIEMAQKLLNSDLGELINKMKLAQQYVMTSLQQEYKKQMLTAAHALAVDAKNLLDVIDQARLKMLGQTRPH
# Cyclin-dependent kinase 1 (Homo sapiens), sequence (P06493 whole entry, looked up): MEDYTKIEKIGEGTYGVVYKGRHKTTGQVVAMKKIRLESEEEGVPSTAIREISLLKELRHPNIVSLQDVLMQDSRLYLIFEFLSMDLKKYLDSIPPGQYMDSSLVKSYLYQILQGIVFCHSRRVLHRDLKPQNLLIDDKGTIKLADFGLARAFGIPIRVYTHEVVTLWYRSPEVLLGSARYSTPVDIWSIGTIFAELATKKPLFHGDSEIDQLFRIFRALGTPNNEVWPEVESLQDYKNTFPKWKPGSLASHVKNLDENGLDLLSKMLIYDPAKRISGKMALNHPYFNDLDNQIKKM
compound,measurement,setting,value
Fc1cccc(/C=C/c2n[nH]c3cc(-c4ccncc4)ccc23)c1F,inhibition,[1],7 to 31%
O=C(Nc1cccc(Oc2ccc3c(/C=C/c4ccc(Cl)cc4)n[nH]c3c2)c1)c1ccccc1,Activity,[2],25 - 75%
CCn1nc(C)cc1C(=O)Nc1cc(Nc2ccc3c(/C=C/c4ccccn4)n[nH]c3c2)c(F)cc1C.Cl,AUC(0-t),[3],276 µg·h/mL
O=C(c1ccc2c(-c3nc4ccccc4[nH]3)n[nH]c2c1)N1CCC(CCO)CC1,inhibition,[4],33%
C#CCNC(=O)c1cccc(C(=O)c2ccc3c(/C=C/c4ccccn4)n[nH]c3c2)c1,inhibition,[5],5%
O=C(Nc1cccc(O)c1)c1ccc2c(-c3nc4ccccc4[nH]3)n[nH]c2c1,inhibition,[4],57.7%
CC(=O)c1cccc(C(=O)Nc2cccc(N(C)c3ccc4c(/C=C/c5ccc6c(c5)OCO6)n[nH]c4c3)c2)c1,Activity,[2],36 - 37%
Cc1cc(C(=O)Nc2cc(Nc3ccc4c(/C=C/c5ccccn5)n[nH]c4c3)ccc2F)n(C)n1.Cl,AUC(0-t),[6],327 µg·h/mL
same,concentration at 7 h,[7],12700 ng/mL
same,concentration at 7 h,[8],1900 ng/mL
same,Cmax,[9],50000 ng/mL
same,concentration at 7 h,[10],4140 ng/mL
CCn1nc(C)cc1C(=O)Nc1cccc(Oc2ccc3c(/C=C/c4c[nH]cn4)n[nH]c3c2)c1,Cmax,[9],179 ng/mL
same,half-life,[11],126 min
O=C(Nc1cccc(C(=O)c2ccc3c(/C=C/c4ccccn4)n[nH]c3c2)c1)c1ccncc1,"remaining at 2 h, 5 µM",[12],50%
same,half-life,[13],66 min
same,half-life,[14],282 min
Cc1cc(NC(=O)c2ccc3c(-c4nc5ccccc5[nH]4)n[nH]c3c2)n[nH]1,inhibition,[4],38.6%
COc1cc(-c2ccc3c(-c4cc5ccccc5[nH]4)n[nH]c3c2)ccc1O,inhibition,[15],26%
CCn1nc(C)cc1C(=O)Nc1cccc(C(=O)c2ccc3c(/C=C/c4ccccn4)n[nH]c3c2)c1,Activity,[16],>=25 - 75%
same,half-life,[13],204 min
same,half-life,[14],174 min
Cc1cc(C(=O)Nc2cc(C(=O)c3ccc4c(/C=C/c5ccccn5)n[nH]c4c3)c(C)cc2C)n(C)n1,Activity,[16],<=25%
CCn1nc(C)cc1C(=O)Nc1cccc(Oc2ccc3c(/C=C/c4ccccn4)n[nH]c3c2)c1,half-life,[17],186 min
same,half-life,[13],2360 min
same,half-life,[11],114 min
same,half-life,[14],318 min
O=C(NCc1cccc(F)c1)c1ccccc1Sc1ccc2c(/C=C/c3ccccn3)n[nH]c2c1,Cmax,[18],Bld
same,beta t1/2,"[11]; mouse, BLD = below limit of detection",Bld
O=C(NCCN1CCOCC1)c1ccc2c(-c3nc4ccccc4[nH]3)n[nH]c2c1,inhibition,[4],21.7%
O=C(Nc1cccc(Oc2ccc3c(/C=C/c4ccccc4)n[nH]c3c2)c1)c1ccccc1,Cmax,[19],198 ng/mL
C/C=C/C(=O)Nc1cccc(C(=O)c2ccc3c(/C=C/c4ccccn4)n[nH]c3c2)c1,Activity,[16],25 - 75%
same,half-life,[13],156 min
same,half-life,[14],102 min
CCn1nc(C)cc1C(=O)Nc1cccc(C(=O)c2ccc3c(/C=C/c4ccccn4)n[nH]c3c2)c1.Cl,Cmax,[20],12 ng/mL
same,half-life,[21],90 min
same,half-life,[17],186 min
same,concentration at 7 h,[8],122 ng/mL
same,half-life,[11],96 min
same,AUC(0-t),[22],61 ng·h/mL
same,concentration at 7 h,[10],1880 ng/mL
same,half-life,[23],144 min
Cc1cc(C(=O)Nc2cccc(C(=O)c3ccc4c(/C=C/c5ccccn5)n[nH]c4c3)c2)n(C)n1.Cl,half-life,[24],564 min
same,concentration at 7 h,[7],12100 ng/mL
same,AUC(0-t),[25],156 µg·h/mL
CCONC(=O)c1ccccc1Sc1ccc2c(/C=C/c3ccccn3)n[nH]c2c1,Activity,[16],>=25 - 75%
same,half-life,[11],120 min
same,half-life,[26],120 min
same,half-life,[14],246 min
O=C(c1cccc(NC(=O)C2C[C@H]2c2ccccc2)c1)c1ccc2c(/C=C/c3ccccn3)n[nH]c2c1 (mixture of isomers),inhibition,[27],48%
same,half-life,[13],30 min
same,half-life,[14],186 min
